Measured values reported in publication PMC12951430, “Modular Vinyl Phosphonamidates for Cysteine-Directed Protein Targeting” (Journal of the American Chemical Society, 2026).
Values joined by “and” are separate entries in the source; they are usually repeats but may differ in a detail not shown here. Equal entries are not always repeated. “Also recorded” adds a separate entry of the source. Where two headings read alike, the source gives them in different places.

Key:
[1] = test system: RAMOS cell lysate; experiment: Gel-based ABPP of alkyne probes in RAMOS cell lysate; design: species or system human; conditions: RAMOS cell lysate 1 mg/mL, 10 and 100 μM, 1 h
Excerpt: Greater reactivity yields a higher isoDTB ratio. Ratios ≥ 4 (dashed line) are considered liganded.
Nonetheless, since the formation of the glutathione conjugate was clearly notable, we wanted to investigate the reactivity of 1a with a more diverse set of thiols. Therefore, we examined all three electrophilic groups for their ability to label cysteines in whole-cell lysates. First, alkyne-functionalized reagents (1b–3b, for structures, see Scheme S1) were synthesized to allow for gel-based activity-based protein profiling (ABPP). […] Since all compounds share the same scaffold and differ only by their reactive functional group, we anticipate that any differences in labeling intensity should primarily stem from differences in electrophilicity. […] CAPA reporter cells were prepared by transiently transfecting HEK293T with a plasmid enabling the cytoplasmic expression of the Halotag protein, and concentration-dependent cell permeability was assessed. […]
Cells were harvested by centrifugation, washed trice with ice cold PBS (Ph 7.4) and stored at -70°C until lysis. […] Lysates were cleared by centrifugation (15’000 rcf) and the proteinconcentration was determined via BCA assay (Pierce BCA Protein Assay Kit, Thermo Fisher Scientific) according to the vendors instructions. […]

[2] = target: wild-type EGFR (Homo sapiens, UniProt P00533); experiment: biochemical; conditions: in vitro kinase assay
Sequence of wild-type EGFR (P00533 25-1210): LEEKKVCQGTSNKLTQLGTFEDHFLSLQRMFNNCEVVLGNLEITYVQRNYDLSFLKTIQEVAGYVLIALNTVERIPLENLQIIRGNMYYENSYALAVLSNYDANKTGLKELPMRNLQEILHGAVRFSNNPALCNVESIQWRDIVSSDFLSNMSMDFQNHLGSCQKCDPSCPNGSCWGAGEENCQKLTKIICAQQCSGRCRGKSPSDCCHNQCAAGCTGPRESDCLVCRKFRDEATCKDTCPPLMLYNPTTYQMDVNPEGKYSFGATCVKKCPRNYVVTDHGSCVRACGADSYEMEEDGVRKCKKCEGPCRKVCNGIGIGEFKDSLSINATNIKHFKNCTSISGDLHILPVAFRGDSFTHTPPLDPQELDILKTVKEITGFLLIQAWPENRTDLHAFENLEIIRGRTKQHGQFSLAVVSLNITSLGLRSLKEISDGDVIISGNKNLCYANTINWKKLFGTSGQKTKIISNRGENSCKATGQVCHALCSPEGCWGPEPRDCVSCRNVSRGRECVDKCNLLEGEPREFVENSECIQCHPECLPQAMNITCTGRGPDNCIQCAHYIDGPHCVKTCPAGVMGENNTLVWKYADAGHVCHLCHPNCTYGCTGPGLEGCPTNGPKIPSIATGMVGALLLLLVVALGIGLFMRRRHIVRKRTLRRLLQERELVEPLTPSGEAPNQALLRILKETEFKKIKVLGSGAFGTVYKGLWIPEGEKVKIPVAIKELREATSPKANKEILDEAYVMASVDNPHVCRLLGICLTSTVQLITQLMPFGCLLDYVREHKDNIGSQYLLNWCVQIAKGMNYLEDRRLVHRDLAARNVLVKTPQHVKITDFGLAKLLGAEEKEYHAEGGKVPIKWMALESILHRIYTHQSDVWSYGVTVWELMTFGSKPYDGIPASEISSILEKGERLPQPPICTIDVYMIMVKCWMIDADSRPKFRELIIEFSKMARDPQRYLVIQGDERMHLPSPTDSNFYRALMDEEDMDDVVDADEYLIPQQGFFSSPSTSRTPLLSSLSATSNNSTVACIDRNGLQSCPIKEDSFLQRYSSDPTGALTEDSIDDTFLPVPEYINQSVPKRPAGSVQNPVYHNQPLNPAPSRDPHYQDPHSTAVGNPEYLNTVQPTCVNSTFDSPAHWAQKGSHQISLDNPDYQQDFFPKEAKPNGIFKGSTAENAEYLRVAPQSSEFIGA

[3] = target: T1, wt EGFR (Homo sapiens, UniProt P00533); experiment: biochemical; assay type: biochemical
T1 construct: purchased Sino Biological
T1 sequence (P00533 25-1210): as above

[4] = target: EGFR in A431 cells (Homo sapiens, UniProt P00533); experiment: Gel-based ABPP of EGFR probes in A431 cells; conditions: for in-cell EGFR labeling, competition with excess Afatinib: pretreatment Afatinib 5 μM; for target selectivity in time-course labeling: 1 µM, up to 6 h
Sequence of EGFR in A431 cells (P00533 25-1210): as above
Experimental: With this probe in hand, we treated wild-type EGFR overexpressing A431 cells at a probe concentration of 1 μM for 1 h at 37 °C, followed by lysis and fluorescent labeling via CuAAC.
For EGFR -probes, A431 -cells were seeded at 60’000 cells/well in a 6-well plate (Greiner Bio-One) and incubated until 80 -100% confluencey. Before treatment , cells were washed twice with PBS. Cells were incubated with the indicated compound concentration (final conc. of 1% DMSO in RPMI -FCS ) at 37 °C.
After the incubati on, cells were washed twice with ice cold PBS and lysed in ice -cold RIPA -buffer containing cOmplete TM protease inhibitor (Roche), 50 mM iodo acetamide (I1149, Sigma Aldrich) and
Following a 10 min incubation at 37 °C lysat es were transferred
TBTA, 0.5 mM TCEP, 0.05 mM fluorescein-N3) in a shaker (800 rpm, 37 °C) for 45 minutes. Afterwards, proteins were precipitated with the 4-fold volume of acetonitrile and cetrifuged (14’00 rcf, 5 min). The solvent was removed and precipitates were resuspended in 80% EtOH followed by another round of centrifugation (10’000 rcf, 5 min). The pellets were aspirated and left to dry on air for 5-10 minutes.
and bands were quantified in ImageLab 6.1.

[5] = test system: RAMOS cells; experiment: Off-target reactivity in EGFR-negative RAMOS cells (gel-based); conditions: up to 10 μM, 1 h, 1 μM time course
Experimental: probe 5 in EGFR-negative RAMOS-cells. Cells (3x10^6/ml) were treated with the indicated probe-
concentration for 1 h @ 37 °C in RPMI –FCS. After the treatment, cells were processed according to the
Data is representative of three independent experiments. a) Fluorescent gel
of RAMOS-cells treated with the indicated probe-concentration. b) Relative fluorescent intensity of
three independent experiments c) Fluorescent gel of RAMOS-cells treated 1 µM probe 5 or 7 for the
indicated time. b) Relative fluorescent intensity of three independent experiments (quantitative results
were normalized to the most intense band in each replicate)
For BTK-probes, RAMOS-cells were seeded at 3x10^6 cells/ml (RMPI w/o FCS) and incubated with the indicated compound concentration (final conc. of 1% DM SO) at 37 °C. After the incubation, cells were harvested by centrifugation, washed twice with ice cold PBS and lysed in ice -cold RIPA-buffer containing cOmpleteTM protease inhibitor (Roche), 50 mM iodo acetamide (I1149, Sigma Aldrich) and
Following a 10 min incubation at 37 °C lysates were f urther processed as described above.

[6] = test system: A431 cells; experiment: Proteomic pulldown with EGFR probes in A431 cells (LFQ); assay type: cell-based, human; conditions: for # Labelled Proteins (total number of significantly enriched proteins) / off-targets enriched: 10 μM probe
Experimental: To gain a more detailed understanding of which proteins are labeled by the corresponding probe, we performed a proteomic pulldown experiment. […] . […] Additionally, we also wanted to investigate proteomic engagement under more extreme conditions, using a 10 μM probe concentration. […] Even though both probes enriched a large portion of proteins, EGFR was still among the most prominent hits for the phosphonamidate probe and only to a lesser extent for 5 (Figure S11). Overall, we observed a certain degree of complementarity between the off-targets obtained from the corresponding probes (Figures j and S12). […] Most prominently, selenoprotein SELENOT and solute carrier protein SLC25A32 were only enriched by phosphonamidate probe 7. On the other hand, several proteins like the cysteine proteases ATG4B, CTSB, and BOLA2 were exclusively enriched by DMAC probe 5.
Figure S 10: Volcano blots obtained from label free quantification of the proteins from streptavidin pulldowns performed with 1 µM probe 5 or 7 (in comparison to the DMSO treated sample). Proteins were identified and quantified and blotted as described in 4.8: Variance stabilization and Perseus-type […]
At the tested concentration, both probes solely enrich
EGFR. Data was obtained from 4 independent replicates.
Figure S 11: Volcano blots obtained from label free quantification of the proteins from streptavidin pulldowns performed with 10 µM probe 5 or 7 (in comparison to the DMSO treated sample). Proteins […]
imputation were enabled. Proteins surpassing a log 2 fold-change of 2.5 and a -log10 adjusted p-value […]
proteins can be found in Supplementary Table 1. Data was obtained from 4 independent replicates. […]
4.8 In-cell protein labeling and s ample preparation for proteomic pull-down Cells were cultured, treated and lysed as described in 4.4. Lysates (approx. 200 μg of protein each) […]
Afterwards, the samples we re processed according to a procedure published by Becker et al. 10: A total of 50 μl of mixed hydrophobic and hydrophilic carboxylate -coated magnetic beads (1:1, prewashed with PBS; Seramag™, Cytavia) was added to the click reaction mixture followed by 600 μl of absolute ethanol to precipitate the proteins. Beads were washed thrice with of 80% ethanol and proteins were eluted by two sequential washes of 0.2% SDS in PBS. The eluted proteins were directly transferred onto 30 μl of streptavidin-coated magnetic beads (prewashed with 0.2% SDS in PBS; New England Biolabs) and incubated on a shaker for 1 h at r.t. Streptavidin-beads were washed thrice with 8 M urea, PBS pH 7.4 and MilliQ water. Washed beads were resuspended in 100 mM ABC buffer, followed by […]
trypsinized overnight at 37 °C (1.5 µg/sample, Promega). The supernatant was removed, acidified to 1% TFA, centrifuged at 10‘000 rcf for 5 minutes and stored at -20 °C until measurement. Before MS/MS analysis a quality-control run was conducted on a Waters XEVO G2-XS QTof instrument to ensure […]
Samples were diluted based on the QC-runs to ensure equal loading. LC-MS/MS analysis was performed using an UltiMate 3000 RSLC nano LC system coupled on -line to an Orbitrap Fusion mass spectrometer (Thermo Fisher Scientific). For sample loading a PepMap C -18 trap-column (Thermo Fischer Scientific) of 0.075 mm ID x 50 mm length, 3 μm particle size and 100 Å pore size was used. The loading mobile phase A contained 1% acetonitrile and 0.05% TFA acid in water, and mobile phase B 0.05% TFA acid in acetonitrile. Reversed-phase separation was performed using a 50 cm analytical column (in-house packed with Poroshell 120 EC-C18, 2.7μm, Agilent Technologies) with mobile phase A contained 0.1% formic acid in water, and mobile phase B 0.1% formic acid in acetonitrile using a 93 […]
ions with charge states 2-4 were isolated with a mass selecting quadrupole (isolation window 1.6 m/z)

[7] = target: T2, BTK in RAMOS cells (Homo sapiens, UniProt Q06187); experiment: Gel-based ABPP of BTK probes in RAMOS cells; assay type: cell-based; conditions: 250 nM, 1 h, 37 °C
T2 construct: we performed a gel-based ABPP experiment using RAMOS cells; host or cells: RAMOS
T2 sequence (Q06187 whole entry): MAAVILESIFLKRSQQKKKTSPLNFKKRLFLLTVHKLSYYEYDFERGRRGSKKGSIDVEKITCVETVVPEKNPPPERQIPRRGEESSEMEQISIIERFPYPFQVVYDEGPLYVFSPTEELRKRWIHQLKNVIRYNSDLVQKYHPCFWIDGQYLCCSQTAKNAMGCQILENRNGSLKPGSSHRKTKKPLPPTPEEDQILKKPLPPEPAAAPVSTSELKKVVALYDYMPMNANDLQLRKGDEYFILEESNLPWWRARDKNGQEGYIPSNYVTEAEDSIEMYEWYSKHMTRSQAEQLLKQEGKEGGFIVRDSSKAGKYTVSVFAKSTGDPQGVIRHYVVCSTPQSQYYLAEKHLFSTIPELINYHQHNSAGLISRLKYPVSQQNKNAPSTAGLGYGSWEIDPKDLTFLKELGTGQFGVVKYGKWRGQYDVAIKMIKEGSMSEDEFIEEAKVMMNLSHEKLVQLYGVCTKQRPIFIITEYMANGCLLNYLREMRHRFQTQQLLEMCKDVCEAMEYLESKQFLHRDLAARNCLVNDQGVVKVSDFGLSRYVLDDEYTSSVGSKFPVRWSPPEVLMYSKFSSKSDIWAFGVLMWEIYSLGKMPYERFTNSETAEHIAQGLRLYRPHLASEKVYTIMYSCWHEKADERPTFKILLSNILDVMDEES
Excerpt: Motivated by these promising results, we wanted to extend the scope toward a different class of kinase inhibitors. […] Inspired by these findings, we synthesized a series of VPA probes based on the pyrazolo[3,4-d]-pyrimidine scaffold (8–11, Figure a), each harboring a different aromatic linker. To compare their reactivity and selectivity for BTK, we performed a gel-based ABPP experiment using RAMOS cells. […] In contrast, for all four PA probes, only one intense band was obtained at the same height as BTK. […] Analogously to Afatinib-derived probe 4a, we wanted to investigate whether one stereoisomer might show preferential binding.
(b) Comparison of the in-cell reactivity profiles of BTK probes 8–12 in RAMOS cells (250 nM, 1 h, 37 °C) analyzed by gel-based ABPP. […]
Fluorescence was monitored over 4 h at 30 °C every 60 seconds (λex = 360 nm and λem = 492 nm).
Background‑subtracted fluorescence intensity (RFU) was plotted against time (s), and data were fitted to a single‑phase association model: […]
4.7 In-cell protein labeling and in -gel fluorescence analysis […]
Afterwards, the precipitate was redissolved in 40 µl 8 M urea (100 mM Tris, pH 8), 8 µl Laemmli buffer were added and the samples were denatured at 95 °C for 5 minutes. Proteins were seperated via SDS - PAGE (12% or 4-20% acrylamide gels) and analyzed on a Gel Doc XR+ (Bio-Rad, USA). […]

| Compound | in-cell EGFR labeling, competition with excess Afatinib ([4]; 1 h 37 °C) | off-target labeling in EGFR-negative cells [5] | # Labelled Proteins (total number of significantly enriched proteins) ([6]; A431 cells) | off-targets enriched ([6]; A431 cells) | target selectivity in time-course labeling [4] | also measured |
| --- | --- | --- | --- | --- | --- | --- |
| C#Cc1ccc(NC(=O)CCl)cc1 [3b] |  |  |  |  |  | fluorescent labeling signal [1]: most intense fluorescent signal |
| C=CP(=O)(Nc1cc2c(Nc3ccc(F)c(Cl)c3)ncnc2cc1O[C@H]1CCOC1)OCC (stereo partly shown) [4a] |  |  |  |  |  | IC50 [2]: 680 pM and 670 pM; Ki ([3]; 4a 2–50 nM): 2430 pM; k inact ([3]; 4a 2–50 nM): 0.24 × 10^–3 s^–1; k inact/K I ratio ([3]; direct comparison): 97 × 10^3 M^–1 s^–1 |
| C#CCCOP(=O)(C=C)Nc1cc2c(Nc3ccc(F)c(Cl)c3)ncnc2cc1O[C@H]1CCOC1 (stereo partly shown) [4c] | selective covalent engagement of EGFR |  |  |  |  |  |
| C#CCOc1cc2ncnc(Nc3ccc(F)c(Cl)c3)c2cc1NC(=O)/C=C/CN(C)C [compound 5, reference compound] |  | significant fluorescent labeling of off-targets | 327 | 118 | significantly higher off-target labeling | significantly enriched proteins ([6]; A431 cells, 1 μM probe, 2 h 37 °C, log2-fold change >2.5, adjusted p <0.01): solely enrich |
| C#CCOc1cc2ncnc(Nc3ccc(F)c(Cl)c3)c2cc1NP(=O)(C=C)OCC (stereo not shown) [compound 7] | EGFR-selective labeling | almost no labeling | 119 | 327 | did not decrease | significantly enriched proteins [6]: solely enrich; also recorded: EGFR is the only protein significantly enriched; lowest concentration with detectable labeling signal ([4]; 1 h 37 °C): ≤ 5 nM |
| C#CCCOP(=O)(C=C)Nc1ccccc1Cn1nc(-c2ccc(Oc3ccccc3)cc2)c2c(N)ncnc21 (stereo not shown) [compound 9] |  |  |  |  |  | in-cell reactivity profile (gel bands) [7]: most intense labeling |
